Measured values: patent publication US9249129B2, “Morpholino substituted urea derivatives as mTOR inhibitors” (CELLZOME LIMITED, priority 2010, dated 2016)

Legend:
Assay in all cases: kinobeads assay with mass spectrometry detection of kinases (kinase selectivity profile)
Assay type in all cases: binding
kinases (kinome) [1] = target: T1, kinases (kinome) (Homo sapiens, UniProt Q13043); conditions: MST1 (STE), IPI00011488
T1 construct: determined in kinobeads assays with mass spectrometry detection of kinases as described previously; endogenous in cells; host or cells: cell lysate
T1 sequence (Q13043 1-487): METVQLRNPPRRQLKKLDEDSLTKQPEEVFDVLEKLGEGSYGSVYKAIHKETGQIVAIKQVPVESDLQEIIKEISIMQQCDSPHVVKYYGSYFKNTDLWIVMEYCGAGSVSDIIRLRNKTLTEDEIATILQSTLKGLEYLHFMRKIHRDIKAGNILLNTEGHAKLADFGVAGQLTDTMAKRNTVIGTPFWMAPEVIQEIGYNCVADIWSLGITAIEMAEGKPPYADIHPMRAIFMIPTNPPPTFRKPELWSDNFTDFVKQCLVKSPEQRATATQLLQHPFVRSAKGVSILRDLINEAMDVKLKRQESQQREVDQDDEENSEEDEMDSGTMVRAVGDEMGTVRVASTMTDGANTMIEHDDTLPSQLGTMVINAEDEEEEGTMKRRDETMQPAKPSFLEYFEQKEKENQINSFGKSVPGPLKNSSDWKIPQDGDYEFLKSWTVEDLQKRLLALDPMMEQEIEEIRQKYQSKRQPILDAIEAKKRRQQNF
Description: (§1) The protein kinase complement of the human genome (the kinome) was described previously (Manning et al., 2002. Science 298(5600):1912-1934). Sequence accession numbers are defined by the International Protein Index (IPI) (Kersey et al., 2004. Proteomics 4(7):1985-1988).

kinases (kinome) [2] = target: T2, kinases (kinome) (Homo sapiens, UniProt Q14164); conditions: IKKe (Other), IPI00029045
T2 construct: determined in kinobeads assays with mass spectrometry detection of kinases as described previously; endogenous in cells; host or cells: cell lysate
T2 sequence (Q14164 1-716): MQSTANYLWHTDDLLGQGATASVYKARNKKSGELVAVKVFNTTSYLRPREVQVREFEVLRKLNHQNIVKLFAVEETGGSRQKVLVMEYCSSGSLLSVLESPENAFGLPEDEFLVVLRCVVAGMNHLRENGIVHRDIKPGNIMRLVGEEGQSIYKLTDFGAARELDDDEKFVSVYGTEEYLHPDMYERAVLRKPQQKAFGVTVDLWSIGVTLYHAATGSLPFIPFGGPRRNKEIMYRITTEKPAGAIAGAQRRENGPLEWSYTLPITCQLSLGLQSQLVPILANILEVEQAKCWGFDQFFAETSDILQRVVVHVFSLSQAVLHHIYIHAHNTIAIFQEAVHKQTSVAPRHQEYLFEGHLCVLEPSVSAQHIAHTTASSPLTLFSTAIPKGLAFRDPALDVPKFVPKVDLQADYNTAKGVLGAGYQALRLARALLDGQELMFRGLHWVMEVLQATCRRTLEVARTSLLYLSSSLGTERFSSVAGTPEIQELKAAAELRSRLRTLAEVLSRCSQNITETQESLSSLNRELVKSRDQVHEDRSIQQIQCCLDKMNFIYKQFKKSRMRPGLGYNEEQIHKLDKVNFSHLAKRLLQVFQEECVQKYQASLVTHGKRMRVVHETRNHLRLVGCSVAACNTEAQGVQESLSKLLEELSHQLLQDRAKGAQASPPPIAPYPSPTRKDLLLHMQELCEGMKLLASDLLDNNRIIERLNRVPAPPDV
Description: as §1

kinases (kinome) [3] = target: T3, kinases (kinome) (Homo sapiens, UniProt P68400); conditions: CK2a1 (Other), IPI00016613
T3 construct: determined in kinobeads assays with mass spectrometry detection of kinases as described previously; endogenous in cells; host or cells: cell lysate
Description: as §1

kinases (kinome) [4] = target: T4, kinases (kinome) (Homo sapiens, UniProt O00444); conditions: PLK4 (Other), IPI00410344
T4 construct: determined in kinobeads assays with mass spectrometry detection of kinases as described previously; endogenous in cells; host or cells: cell lysate
T4 sequence (O00444 1-970): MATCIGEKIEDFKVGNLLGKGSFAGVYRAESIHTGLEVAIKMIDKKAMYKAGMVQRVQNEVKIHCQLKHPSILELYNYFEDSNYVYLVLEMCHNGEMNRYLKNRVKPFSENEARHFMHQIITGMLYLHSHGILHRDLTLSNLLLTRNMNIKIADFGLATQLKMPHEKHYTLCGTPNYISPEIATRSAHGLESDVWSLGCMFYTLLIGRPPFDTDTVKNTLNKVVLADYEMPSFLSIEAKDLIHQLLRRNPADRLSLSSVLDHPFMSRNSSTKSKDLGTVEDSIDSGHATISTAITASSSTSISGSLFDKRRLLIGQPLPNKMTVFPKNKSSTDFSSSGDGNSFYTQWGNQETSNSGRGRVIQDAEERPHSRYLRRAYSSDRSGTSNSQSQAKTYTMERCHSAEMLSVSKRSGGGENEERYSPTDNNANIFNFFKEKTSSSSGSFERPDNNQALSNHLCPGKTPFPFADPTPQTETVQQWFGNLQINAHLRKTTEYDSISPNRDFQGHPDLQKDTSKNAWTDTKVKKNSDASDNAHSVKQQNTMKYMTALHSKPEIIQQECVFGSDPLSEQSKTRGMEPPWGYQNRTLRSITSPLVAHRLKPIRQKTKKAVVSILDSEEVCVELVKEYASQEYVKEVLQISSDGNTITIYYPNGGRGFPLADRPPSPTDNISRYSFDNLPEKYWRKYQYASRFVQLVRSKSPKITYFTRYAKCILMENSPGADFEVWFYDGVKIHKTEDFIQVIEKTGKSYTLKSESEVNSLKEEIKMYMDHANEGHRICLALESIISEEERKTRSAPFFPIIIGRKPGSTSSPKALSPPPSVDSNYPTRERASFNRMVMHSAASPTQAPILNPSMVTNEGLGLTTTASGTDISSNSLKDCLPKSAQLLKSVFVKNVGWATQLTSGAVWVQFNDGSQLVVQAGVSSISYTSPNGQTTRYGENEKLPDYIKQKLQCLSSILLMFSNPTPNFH
Description: as §1

kinases (kinome) [5] = target: T5, kinases (kinome) (Homo sapiens, UniProt Q06187); conditions: BTK (TK), IPI00029132
T5 construct: determined in kinobeads assays with mass spectrometry detection of kinases as described previously; endogenous in cells; host or cells: cell lysate
Description: as §1

Measured: IC50

T3 sequence (P68400 whole entry): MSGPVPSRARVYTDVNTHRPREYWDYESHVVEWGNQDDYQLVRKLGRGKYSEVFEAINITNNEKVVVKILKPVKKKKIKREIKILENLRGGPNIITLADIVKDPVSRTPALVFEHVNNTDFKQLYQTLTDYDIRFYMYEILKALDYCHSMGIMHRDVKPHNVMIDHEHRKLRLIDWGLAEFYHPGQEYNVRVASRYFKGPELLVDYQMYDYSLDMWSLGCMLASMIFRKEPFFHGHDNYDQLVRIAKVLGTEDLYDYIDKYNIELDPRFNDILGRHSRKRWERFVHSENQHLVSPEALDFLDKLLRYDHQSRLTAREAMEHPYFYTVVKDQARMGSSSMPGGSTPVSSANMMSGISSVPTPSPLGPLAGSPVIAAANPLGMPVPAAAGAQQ
T5 sequence (Q06187 whole entry): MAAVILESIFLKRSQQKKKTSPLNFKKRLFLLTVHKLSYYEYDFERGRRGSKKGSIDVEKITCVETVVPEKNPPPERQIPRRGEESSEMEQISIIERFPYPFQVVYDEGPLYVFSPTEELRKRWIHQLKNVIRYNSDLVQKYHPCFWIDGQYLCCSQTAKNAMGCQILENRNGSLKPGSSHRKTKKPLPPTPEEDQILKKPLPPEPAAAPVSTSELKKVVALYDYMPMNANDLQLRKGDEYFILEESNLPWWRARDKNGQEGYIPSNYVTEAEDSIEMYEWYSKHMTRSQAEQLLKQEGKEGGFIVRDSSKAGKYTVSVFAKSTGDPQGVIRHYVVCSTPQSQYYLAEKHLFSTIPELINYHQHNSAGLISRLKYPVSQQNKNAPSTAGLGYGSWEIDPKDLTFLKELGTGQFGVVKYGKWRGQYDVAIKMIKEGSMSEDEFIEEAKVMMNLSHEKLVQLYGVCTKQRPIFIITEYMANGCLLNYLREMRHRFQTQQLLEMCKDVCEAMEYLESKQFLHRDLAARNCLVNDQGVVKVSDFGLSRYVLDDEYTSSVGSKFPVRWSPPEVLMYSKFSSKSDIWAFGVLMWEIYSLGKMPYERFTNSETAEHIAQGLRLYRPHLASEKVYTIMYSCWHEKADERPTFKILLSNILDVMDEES

C[C@H]1COCCN1c1nc(-c2ccc(NC(=O)NC3CC3)cc2)cc(-c2cccnc2S(C)(=O)=O)n1 [Example 46, (S)-1-cyclopropyl-3-(4-(2-(3-methylmorpholino)-6-(2-(methylsulfonyl)pyridin-3-yl)pyrimidin-4-yl)phenyl)urea]
> 10 µM: all assays above

C[C@H]1COCCN1c1nc(-c2ccc(NC(=O)NC3CC3)cc2)cc(-c2ccccc2S(C)(=O)=O)n1 [Example 4, (S)-1-cyclopropyl-3-(4-(2-(3-methylmorpholino)-6-(2-(methylsulfonyl)phenyl)pyrimidin-4-yl)phenyl)urea]
> 10 µM: all assays above

C[C@H]1COCCN1c1nc(-c2ccc(NC(=O)N[C@H]3CCC[C@@H]3O)cc2)cc(-c2cc(F)ccc2S(C)(=O)=O)n1 [Example 76, 1-(4-(6-(5-fluoro-2-(methylsulfonyl)phenyl)-2-((S)-3-methylmorpholino)pyrimidin-4-yl)phenyl)-3-((1S,2S)-2-hydroxycyclopentyl)urea]
> 10 µM: all assays above

CCNC(=O)Nc1ccc(-c2cc(-c3ccccc3C#N)nc(N3CCOC[C@@H]3C)n2)cc1 [Example 8, (S)-1-(4-(6-(2-cyanophenyl)-2-(3-methylmorpholino)pyrimidin-4-yl)phenyl)-3-ethylurea]
> 10 µM: all assays above

C[C@H]1COCCN1c1cc(-c2ccccc2S(C)(=O)=O)nc(-c2ccc(NC(=O)NC3CC3)cc2)n1 [Example 6, (S)-1-cyclopropyl-3-(4-(4-(3-methylmorpholino)-6-(2-(methylsulfonyl)phenyl)pyrimidin-2-yl)phenyl)urea]
> 10 µM: all assays above

C[C@H]1COCCN1c1cc(-c2ccccn2)nc(-c2ccc(NC(=O)NCCO)cc2)n1 [Example 43, (S)-1-(2-hydroxyethyl)-3-(4-(4-(3-methylmorpholino)-6-(pyridin-2-yl)pyrimidin-2-yl)phenyl)urea]
> 10 µM: all assays above

C[C@H]1COCCN1c1nc(-c2ccc(NC(=O)NC3CC3)cc2)cc(-c2cc(F)ccc2S(C)(=O)=O)n1 [Example 40, (S)-1-cyclopropyl-3-(4-(6-(5-fluoro-2-(methylsulfonyl)phenyl)-2-(3-methylmorpholino)pyrimidin-4-yl)phenyl)urea]
> 10 µM: all assays above
